The values that follow are results of earlier work, collected in patent publication US11530413B2, “Compositions and methods to treat cancer” (NOVARTIS AG, priority 2017, dated 2022).

Series [1] concerns the target CDK2. The note with it: read-out: Ki as CDK inhibitor.
The target of series [2] is T1, CBFB (Homo sapiens, UniProt Q13951).
T1 sequence (Q13951 1-182): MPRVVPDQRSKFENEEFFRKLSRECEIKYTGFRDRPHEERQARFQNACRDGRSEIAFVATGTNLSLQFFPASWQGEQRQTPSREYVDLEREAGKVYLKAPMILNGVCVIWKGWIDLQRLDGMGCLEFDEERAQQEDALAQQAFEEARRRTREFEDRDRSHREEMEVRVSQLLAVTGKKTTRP
The note with it: read-out: IC50 as CBFB inhibitor.

Series [3] deals with CDK. The note with it: read-out: IC50 as multi-CDK inhibitor.
In series [4] the target is T2, CBFbeta association with Runx1 (Homo sapiens, UniProt Q13951).
T2 sequence (Q13951 1-141 limits assumed): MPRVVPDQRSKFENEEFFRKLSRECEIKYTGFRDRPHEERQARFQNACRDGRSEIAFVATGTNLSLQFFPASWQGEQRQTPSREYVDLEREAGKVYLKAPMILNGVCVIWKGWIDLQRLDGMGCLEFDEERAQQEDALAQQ

Series [5] deals with GATA3. The note with it: target of the IC50 not stated; named as GATA3 inhibitor; read-out: IC50 of the steroid.
In series [6] the target is T3, MITF (Homo sapiens, UniProt O75030).
T3 sequence (O75030 1-526): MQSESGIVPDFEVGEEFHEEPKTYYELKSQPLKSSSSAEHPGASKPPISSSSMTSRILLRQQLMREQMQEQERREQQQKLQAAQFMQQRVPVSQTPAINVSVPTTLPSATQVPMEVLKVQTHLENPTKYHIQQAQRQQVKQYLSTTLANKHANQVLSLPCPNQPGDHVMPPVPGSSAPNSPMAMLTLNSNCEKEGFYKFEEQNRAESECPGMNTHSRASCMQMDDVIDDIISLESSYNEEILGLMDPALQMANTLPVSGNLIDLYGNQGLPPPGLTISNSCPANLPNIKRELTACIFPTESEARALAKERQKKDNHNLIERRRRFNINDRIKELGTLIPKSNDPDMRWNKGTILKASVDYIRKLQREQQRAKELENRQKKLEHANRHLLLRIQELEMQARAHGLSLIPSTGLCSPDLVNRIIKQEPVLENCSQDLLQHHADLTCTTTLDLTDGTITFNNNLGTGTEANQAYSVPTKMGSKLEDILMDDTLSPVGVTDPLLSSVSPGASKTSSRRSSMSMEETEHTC
The note with it: read-out: IC50 as MITF inhibitor.

The target in series [7] is T1, CBFB. The note with it: read-out: IC50 as CBFB inhibitor. This is another data set of the same source.
The test system of series [8] is FLI1. The note with it: read-out: IC50 as FLI1 inhibitor.

Where two headings read alike, the source gives them in different places.

Broadly, the Ki is the equilibrium dissociation constant of an inhibitor or competing ligand from its target. With `CCNCc1cncc(-c2cccc3[nH]nc(-c4nc5c(F)cc(F)cc5[nH]4)c23)c1C` [AG-024322, N-((5-(3-(4,6-difluoro-1H-benzo[d]imidazol-2-yl)-1H-indazol-4-yl)-4-methylpyridin-3-yl)methyl)ethanamine], in series [1], the Ki is 1 to 3 nM.

As usually defined, the IC50 is the concentration at which inhibition is half-maximal. As to `COc1cccnc1-c1nc2cc(OC(F)(F)F)ccc2[nH]1` [AI-10-104], the IC50 in series [2] was 1250 nM.

For `O=C(NC1CCNCC1)c1n[nH]cc1NC(=O)c1c(Cl)cccc1Cl` [AT7519, 4-[(2,6-Dichlorobenzoyl)amino]-N-(4-piperidinyl)-1H-pyrazole-3-carboxamide], in series [3], the IC50 was 10 to 210 nM.

Regarding `CCc1sc(N)nc1-c1ccc(OC)cc1` [CBFB inhibitor, 5-ethyl-4-(4-methoxyphenyl)-2-thiazolamine], in series [4], the “IC50, binds CBFbeta and prevents its association with Runx1” value is 3200 nM.

Take `C[C@@H]1C[C@H]2[C@@H]3CCC4=CC(=O)C=C[C@]4(C)[C@@]3(F)[C@@H](O)C[C@]2(C)[C@@]1(O)C(=O)CO` [Dexamethasone, (8S,9R,10S,11S,13S,14S,16R,17R)-9-Fluoro-11,17-dihydroxy-17-(2-hydroxyacetyl)-10,13,16-trimethyl-6,7,8,9,10,11,12,13,14,15,16,17-dodecahydro-3H-cyclopenta[a]phenanthren-3-one]: the IC50 in series [5] was 10 nM.

Take `CN1CC[C@H](c2c(O)cc(O)c3c(=O)cc(-c4ccccc4Cl)oc23)[C@H](O)C1` [Flavopiridol, 2-(2-chlorophenyl)-5,7-dihydroxy-8-[(3S,4R)-3-hydroxy-1-methyl-4-piperidinyl]-4-chromenone]: the IC50 in series [3] was ~40 nM.

With `NS(=O)(=O)c1ccc(NC2=CC(=O)c3ccccc3C2=O)cc1` [ML329, 4-((1,4-dioxo-1,4-dihydronaphthalen-2-yl)amino)benzenesulfonamide], the IC50 in series [6] was 1200 nM.

`O=C1CN=C(c2ccc[nH]2)c2cc(Cl)ccc2N1` [Ro5-3335, 7-Chloro-1,3-dihydro-5-(1H-pyrrol-2-yl)-2H-1,4-benzodiazepin-2-one]: the IC50 in series [7] was 1100 nM.

Regarding `COc1ccc(C(=O)C[C@]2(O)C(=O)Nc3c(Cl)ccc(Cl)c32)cc1` [TK-216, 4,7-dichloro-1,3-dihydro-3-hydroxy-3-[2-(4-methoxyphenyl)-2-oxoethyl]-(3R)-2H-indol-2-one], in series [8], the IC50 is 449 nM.
